This note sets out measurements from US11331314B2, “Amine substituted triazole derivatives and uses thereof” (Bayer Pharma Aktiengesellschaft, priority 2017, dated 2022).

The target in one experiment is human V1a receptor (Homo sapiens, UniProt P37288). The experiment is described as follows: Cellular in vitro assay for determining vasopressin receptor activity, V1a receptor cell line (photoprotein luminescence). In kind it is cell-based. The conditions noted are these: for pIC50: CHO cell line transfected with the human V1a receptor, agonist [Arg8]-vasopressin at EC50 concentration, read-out: IC50 hV1a; for ratio IC50 hV2/hV1a: selectivity ratio of the cellular IC50 values. A digest of the protocol:
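CHO K1 cells stably expressing human V1a receptor with aequorin photoprotein, loaded overnight with coelenterazine. Compounds preincubated 10 min at various concentrations, then challenged with [Arg^8]-vasopressin at EC50 concentration. Calcium-driven luminescence read immediately; IC50 values derived.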

Another experiment addresses T1, human V2 receptor (Homo sapiens, UniProt P30518).
T1 construct: expressed in transfected cells; host or cells: CHO K1 (ATCC) expressing firefly luciferase under a CRE-responsive promoter
The experiment is described as follows: Cellular in vitro assay for determining vasopressin receptor activity, V2 receptor cell line (CRE-luciferase). The experiment is classed as cell-based. Particulars: CHO cell line transfected with the human V2 receptor; agonist [Arg8]-vasopressin at EC50 concentration; read-out: IC50 hV2.

The term pIC50 denotes −log10 of the IC50, conventionally taken in molar units.

pIC50: −log10 of the molar value.

T1 sequence (P30518 whole entry): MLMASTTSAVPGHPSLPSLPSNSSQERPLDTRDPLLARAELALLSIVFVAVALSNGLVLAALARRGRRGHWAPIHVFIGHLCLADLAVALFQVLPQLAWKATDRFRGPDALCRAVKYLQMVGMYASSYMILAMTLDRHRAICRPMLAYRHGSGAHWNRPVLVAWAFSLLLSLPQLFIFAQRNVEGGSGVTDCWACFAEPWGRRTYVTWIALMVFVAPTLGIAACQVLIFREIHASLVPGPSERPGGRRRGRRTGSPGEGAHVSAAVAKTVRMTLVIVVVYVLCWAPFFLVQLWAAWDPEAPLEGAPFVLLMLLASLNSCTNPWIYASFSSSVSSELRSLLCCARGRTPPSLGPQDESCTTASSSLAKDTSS
Sequence of human V1a receptor (P37288 whole entry): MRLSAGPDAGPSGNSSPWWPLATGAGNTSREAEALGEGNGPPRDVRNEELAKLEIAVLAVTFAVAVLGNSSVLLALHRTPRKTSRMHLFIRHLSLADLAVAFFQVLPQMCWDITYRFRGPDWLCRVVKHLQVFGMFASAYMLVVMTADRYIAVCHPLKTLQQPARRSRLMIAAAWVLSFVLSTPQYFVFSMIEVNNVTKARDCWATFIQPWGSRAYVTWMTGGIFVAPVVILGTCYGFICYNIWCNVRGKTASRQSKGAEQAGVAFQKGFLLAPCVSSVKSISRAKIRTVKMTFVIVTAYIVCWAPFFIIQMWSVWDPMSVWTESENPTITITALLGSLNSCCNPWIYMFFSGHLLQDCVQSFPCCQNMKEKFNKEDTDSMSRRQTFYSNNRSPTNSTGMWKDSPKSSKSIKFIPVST

`O=C1NCCN1CCNc1nc(Cn2nc(-c3ccc(Cl)cc3)n(C[C@H](O)C(F)(F)F)c2=O)nn1-c1ccccc1Cl` [Example 46, 5-(4-Chlorophenyl)-2-{[1-(2-chlorophenyl)-5-{[2-(2-oxoimidazolidin-1-yl)ethyl]amino}-1H-1,2,4-triazol-3-yl]methyl}-4-[(2S)-3,3,3-trifluoro-2-hydroxypropyl]-2,4-dihydro-3H-1,2,4-triazol-3-one]: the negative-log IC50 (pIC50) is 9.19 at human V1a receptor and 8.26 at human V2 receptor. Also, the “ratio IC50 hV2/hV1a” value on human V1a receptor is recorded as 8.5.

Take `O=c1n(Cc2nc(N3CC4(C3)CS(=O)(=O)C4)n(-c3ccccc3Cl)n2)nc(-c2ccc(Cl)cc2)n1C[C@H](O)C(F)(F)F` [Example 47, 5-(4-Chlorophenyl)-2-{[1-(2-chlorophenyl)-5-(2,2-dioxido-2-thia-6-azaspiro[3.3]hept-6-yl)-1H-1,2,4-triazol-3-yl]methyl}-4-[(2S)-3,3,3-trifluoro-2-hydroxypropyl]-2,4-dihydro-3H-1,2,4-triazol-3-one]: on human V1a receptor, the pIC50 was 9.02 and the “ratio IC50 hV2/hV1a” value was 5.8. Besides, at human V2 receptor, the pIC50 is 8.25.

With `O=C1CN(c2nc(Cn3nc(-c4ccc(Cl)cc4)n(C[C@H](O)C(F)(F)F)c3=O)nn2-c2ccccc2Cl)CCN1` [Example 48, 4-[1-(2-Chlorophenyl)-3-({3-(4-chlorophenyl)-5-oxo-4-[(2S)-3,3,3-trifluoro-2-hydroxypropyl]-4,5-dihydro-1H-1,2,4-triazol-1-yl}methyl)-1H-1,2,4-triazol-5-yl]piperazin-2-one], the values for the pIC50 at human V1a receptor and at human V2 receptor were 9.19 and 7.98, respectively. The “ratio IC50 hV2/hV1a” value on human V1a receptor turned out to be 16.3.

Consider `C[C@@H](O)CNc1nc(Cn2nc(-c3ccc(Cl)cc3)n(C[C@H](O)C(F)(F)F)c2=O)nn1-c1ccccc1Cl` [Example 49, 5-(4-Chlorophenyl)-2-{[1-(2-chlorophenyl)-5-{[(2R)-2-hydroxypropyl]amino}-1H-1,2,4-triazol-3-yl]methyl}-4-[(2S)-3,3,3-trifluoro-2-hydroxypropyl]-2,4-dihydro-3H-1,2,4-triazol-3-one], for which, at human V1a receptor, the negative logarithm of the IC50 (pIC50) was 9.20 and the “ratio IC50 hV2/hV1a” value came to 3.1. The negative-log IC50 (pIC50) on human V2 receptor was 8.71.

For `C[C@H](O)CNc1nc(Cn2nc(-c3ccc(Cl)cc3)n(C[C@H](O)C(F)(F)F)c2=O)nn1-c1ccccc1Cl` [Example 50, 5-(4-Chlorophenyl)-2-{[1-(2-chlorophenyl)-5-{[(2S)-2-hydroxypropyl]amino}-1H-1,2,4-triazol-3-yl]methyl}-4-[(2S)-3,3,3-trifluoro-2-hydroxypropyl]-2,4-dihydro-3H-1,2,4-triazol-3-one], on human V1a receptor, the pIC50 was 9.33 and the “ratio IC50 hV2/hV1a” value came out at 4.5. Also, the negative-log IC50 (pIC50) on human V2 receptor is 8.68.

For the compound `CS(=O)(=O)CCNc1nc(Cn2nc(-c3ccc(Cl)cc3)n(C[C@H](O)C(F)(F)F)c2=O)nn1-c1ccccc1Cl` [Example 51, 5-(4-Chlorophenyl)-2-{[1-(2-chlorophenyl)-5-{[2-(methylsulfonyl)ethyl]amino}-1H-1,2,4-triazol-3-yl]methyl}-4-[(2S)-3,3,3-trifluoro-2-hydroxypropyl]-2,4-dihydro-3H-1,2,4-triazol-3-one], the negative logarithm of the IC50 (pIC50) at human V1a receptor was 9.15; on human V2 receptor, 8.76. Besides, the “ratio IC50 hV2/hV1a” value on human V1a receptor is 2.5.

`O=c1n(Cc2nc(NCC3(O)CCC3)n(-c3ccccc3Cl)n2)nc(-c2ccc(Cl)cc2)n1C[C@H](O)C(F)(F)F` [Example 52, 5-(4-Chlorophenyl)-2-{[1-(2-chlorophenyl)-5-{[(1-hydroxycyclobutyl)methyl]amino}-1H-1,2,4-triazol-3-yl]methyl}-4-[(2S)-3,3,3-trifluoro-2-hydroxypropyl]-2,4-dihydro-3H-1,2,4-triazol-3-one]: the pIC50 on human V1a receptor is 9.19; on human V2 receptor it was 9.08. The “ratio IC50 hV2/hV1a” value at human V1a receptor is recorded as 1.3.

For the compound `O=c1n(Cc2nc(NCC3(O)CC3)n(-c3ccccc3Cl)n2)nc(-c2ccc(Cl)cc2)n1C[C@H](O)C(F)(F)F` [Example 54, 5-(4-Chlorophenyl)-2-{[1-(2-chlorophenyl)-5-{[(1-hydroxycyclopropyl)methyl]amino}-1H-1,2,4-triazol-3-yl]methyl}-4-[(2S)-3,3,3-trifluoro-2-hydroxypropyl]-2,4-dihydro-3H-1,2,4-triazol-3-one], at human V1a receptor, the pIC50 is 9.27 and the “ratio IC50 hV2/hV1a” value is reported as 2.9. Also, at human V2 receptor, the negative logarithm of the IC50 (pIC50) is 8.81.

Turning to `O=c1n(Cc2nc(N3CCS(=O)(=O)CC3)n(-c3ccccc3Cl)n2)nc(-c2ccc(Cl)cc2)n1C[C@H](O)C(F)(F)F` [Example 55, 5-(4-Chlorophenyl)-2-{[1-(2-chlorophenyl)-5-(1,1-dioxidothiomorpholin-4-yl)-1H-1,2,4-triazol-3-yl]methyl}-4-[(2S)-3,3,3-trifluoro-2-hydroxypropyl]-2,4-dihydro-3H-1,2,4-triazol-3-one], on human V1a receptor, the pIC50 was 9.41 and the “ratio IC50 hV2/hV1a” value is recorded as 67.1. For the same compound, the negative logarithm of the IC50 (pIC50) on human V2 receptor is 7.59.

As to `NC(=O)[C@@H]1CCN(c2nc(Cn3nc(-c4ccc(Cl)cc4)n(C[C@H](O)C(F)(F)F)c3=O)nn2-c2ccccc2Cl)C1` [Example 56, (3R)-1-[1-(2-Chlorophenyl)-3-({3-(4-chlorophenyl)-5-oxo-4-[(2S)-3,3,3-trifluoro-2-hydroxypropyl]-4,5-dihydro-1H-1,2,4-triazol-1-yl}methyl)-1H-1,2,4-triazol-5-yl]pyrrolidine-3-carboxamide], on human V1a receptor, the pIC50 is 9.14 and the “ratio IC50 hV2/hV1a” value was 7.7. Also, the pIC50 on human V2 receptor was 8.25.

For `NC(=O)[C@H]1CCN(c2nc(Cn3nc(-c4ccc(Cl)cc4)n(C[C@H](O)C(F)(F)F)c3=O)nn2-c2ccccc2Cl)C1` [Example 57, (3S)-1-[1-(2-Chlorophenyl)-3-({3-(4-chlorophenyl)-5-oxo-4-[(2S)-3,3,3-trifluoro-2-hydroxypropyl]-4,5-dihydro-1H-1,2,4-triazol-1-yl}methyl)-1H-1,2,4-triazol-5-yl]pyrrolidine-3-carboxamide], on human V1a receptor, the negative-log IC50 (pIC50) was 9.13 and the “ratio IC50 hV2/hV1a” value worked out at 6.6. For the same compound, the negative-log IC50 (pIC50) on human V2 receptor was 8.31.

`NC(=O)[C@@H]1CCCN1c1nc(Cn2nc(-c3ccc(Cl)cc3)n(C[C@H](O)C(F)(F)F)c2=O)nn1-c1ccccc1Cl` [Example 58, 1-[1-(2-Chlorophenyl)-3-({3-(4-chlorophenyl)-5-oxo-4-[(2S)-3,3,3-trifluoro-2-hydroxypropyl]-4,5-dihydro-1H-1,2,4-triazol-1-yl}methyl)-1H-1,2,4-triazol-5-yl]-L-prolinamide]: on human V1a receptor, the pIC50 is 8.78 and the “ratio IC50 hV2/hV1a” value is 13.3. Besides, the pIC50 on human V2 receptor is 7.66.

With `NC(=O)[C@H]1CCCN1c1nc(Cn2nc(-c3ccc(Cl)cc3)n(C[C@H](O)C(F)(F)F)c2=O)nn1-c1ccccc1Cl` [Example 59, 1-[1-(2-Chlorophenyl)-3-({3-(4-chlorophenyl)-5-oxo-4-[(2S)-3,3,3-trifluoro-2-hydroxypropyl]-4,5-dihydro-1H-1,2,4-triazol-1-yl}methyl)-1H-1,2,4-triazol-5-yl]-D-prolinamide], at human V1a receptor, the pIC50 is 8.64 and the “ratio IC50 hV2/hV1a” value is recorded as 17.2. On human V2 receptor, the pIC50 was 7.40.

Turning to `NCCNc1nc(Cn2nc(-c3ccc(Cl)cc3)n(C[C@H](O)C(F)(F)F)c2=O)nn1-c1ccccc1Cl` [Example 70, 2-({5-[(2-Aminoethyl)amino]-1-(2-chlorophenyl)-1H-1,2,4-triazol-3-yl}methyl)-5-(4-chlorophenyl)-4-[(2S)-3,3,3-trifluoro-2-hydroxypropyl]-2,4-dihydro-3H-1,2,4-triazol-3-one], at human V1a receptor, the negative-log IC50 (pIC50) is 9.05 and the “ratio IC50 hV2/hV1a” value was determined as 24.4. The negative logarithm of the IC50 (pIC50) at human V2 receptor was 7.66.

Regarding `CC(=O)NCCNc1nc(Cn2nc(-c3ccc(Cl)cc3)n(C[C@H](O)C(F)(F)F)c2=O)nn1-c1ccccc1Cl` [Example 71, N-(2-{[1-(2-Chlorophenyl)-3-({3-(4-chlorophenyl)-5-oxo-4-[(2S)-3,3,3-trifluoro-2-hydroxypropyl]-4,5-dihydro-1H-1,2,4-triazol-1-yl}methyl)-1H-1,2,4-triazol-5-yl]amino}ethyl)acetamide], the pIC50 on human V1a receptor was 9.36; at human V2 receptor it was 8.62. Besides, the “ratio IC50 hV2/hV1a” value on human V1a receptor was 5.5.

For the compound `O=c1n(Cc2nc(N3CCNCC3)n(-c3ccccc3Cl)n2)nc(-c2ccc(Cl)cc2)n1C[C@H](O)C(F)(F)F` [Example 72, 5-(4-Chlorophenyl)-2-{[1-(2-chlorophenyl)-5-(piperazin-1-yl)-1H-1,2,4-triazol-3-yl]methyl}-4-[(2S)-3,3,3-trifluoro-2-hydroxypropyl]-2,4-dihydro-3H-1,2,4-triazol-3-one], at human V1a receptor, the negative-log IC50 (pIC50) was 9.24 and the “ratio IC50 hV2/hV1a” value was found to be 30.2. On human V2 receptor, the pIC50 was 7.76.

`O=c1n(Cc2nc(NCC3CS(=O)(=O)C3)n(-c3ccccc3Cl)n2)nc(-c2ccc(Cl)cc2)n1C[C@H](O)C(F)(F)F` [Example 73, 5-(4-Chlorophenyl)-2-{[1-(2-chlorophenyl)-5-{[(1,1-dioxidothietan-3-yl)methyl]amino}-1H-1,2,4-triazol-3-yl]methyl}-4-[(2S)-3,3,3-trifluoro-2-hydroxypropyl]-2,4-dihydro-3H-1,2,4-triazol-3-one]: on human V1a receptor, the negative logarithm of the IC50 (pIC50) was 8.95 and the “ratio IC50 hV2/hV1a” value is recorded as 8.4. The negative-log IC50 (pIC50) at human V2 receptor is 8.02.

On to `NC(=O)C1CN(c2nc(Cn3nc(-c4ccc(Cl)cc4)n(C[C@H](O)C(F)(F)F)c3=O)nn2-c2ccccc2Cl)C1` [Example 74, 1-[1-(2-Chlorophenyl)-3-({3-(4-chlorophenyl)-5-oxo-4-[(2S)-3,3,3-trifluoro-2-hydroxypropyl]-4,5-dihydro-1H-1,2,4-triazol-1-yl}methyl)-1H-1,2,4-triazol-5-yl]azetidine-3-carboxamide], for which, on human V1a receptor, the pIC50 was 9.32 and the “ratio IC50 hV2/hV1a” value is on record as 7.5. Also, the pIC50 at human V2 receptor is 8.44.
